One data set deals with hERG (KCNH2) (Homo sapiens, UniProt Q12809). In words: Inhibition of human ERG at 10 uM.
Data set [1] deals with T1, Alpha-2A adrenergic receptor (Homo sapiens, UniProt P08913).
T1 sequence (P08913 whole entry): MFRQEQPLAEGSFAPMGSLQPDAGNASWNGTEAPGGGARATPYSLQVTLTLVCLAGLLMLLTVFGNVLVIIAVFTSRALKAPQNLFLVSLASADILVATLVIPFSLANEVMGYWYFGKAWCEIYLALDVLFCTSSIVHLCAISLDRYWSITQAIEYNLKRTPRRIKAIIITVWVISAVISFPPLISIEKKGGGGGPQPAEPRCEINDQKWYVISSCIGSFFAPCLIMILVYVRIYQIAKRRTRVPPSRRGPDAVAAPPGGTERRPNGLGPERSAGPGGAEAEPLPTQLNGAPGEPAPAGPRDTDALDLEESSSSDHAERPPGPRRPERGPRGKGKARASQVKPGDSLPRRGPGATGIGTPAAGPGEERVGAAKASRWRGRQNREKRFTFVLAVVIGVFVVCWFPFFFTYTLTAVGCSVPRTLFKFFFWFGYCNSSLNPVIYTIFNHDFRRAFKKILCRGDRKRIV
Kind of data set: Displacement of [3H]MK912 from human cloned adrenergic alpha-2a receptor. On the technique in general: Displacement assays read how much labelled ligand stays bound in the presence of the test substance.

Data set [2] has as its target Histamine H3 receptor (Rattus norvegicus) (UniProt Q9QYN8). Conditions: 10 uM.
Description: Displacement of [3H]SMT from histamine H3 receptor in forebrain of rat at 10 uM
In data set [3] the target is T2, Alpha-1D adrenergic receptor (Homo sapiens) (UniProt P25100).
T2 sequence (whole entry): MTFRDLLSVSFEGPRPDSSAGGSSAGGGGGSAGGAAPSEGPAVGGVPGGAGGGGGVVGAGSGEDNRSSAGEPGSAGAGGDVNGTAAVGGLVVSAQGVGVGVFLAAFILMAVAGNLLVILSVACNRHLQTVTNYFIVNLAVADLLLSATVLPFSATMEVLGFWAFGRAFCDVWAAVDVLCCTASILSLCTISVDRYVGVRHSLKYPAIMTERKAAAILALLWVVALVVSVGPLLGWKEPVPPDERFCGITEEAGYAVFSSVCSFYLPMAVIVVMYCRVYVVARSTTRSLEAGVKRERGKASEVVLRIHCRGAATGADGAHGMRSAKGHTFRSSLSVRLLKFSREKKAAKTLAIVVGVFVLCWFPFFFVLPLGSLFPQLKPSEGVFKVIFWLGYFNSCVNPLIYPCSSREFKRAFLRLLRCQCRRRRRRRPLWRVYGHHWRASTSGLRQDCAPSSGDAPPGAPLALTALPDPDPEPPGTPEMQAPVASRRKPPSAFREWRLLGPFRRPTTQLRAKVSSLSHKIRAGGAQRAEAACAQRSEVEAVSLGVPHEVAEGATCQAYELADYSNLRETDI
Conditions: 10 uM.
Description: Inhibition of cloned adrenergic Alpha-1D receptor at 10 uM

A further data set has as its target Histamine H3 receptor (Rattus norvegicus, UniProt Q9QYN8). In words: Displacement of [3H]SMT from histamine H3 receptor in forebrain of rat.
The next data set has as its target Histamine H2 receptor (Cavia porcellus, UniProt P47747). Kind of data set: Displacement of [125I]-APT from histamine H2 receptor in brain of guinea pig. Type of data set: tissue-based.
Data set [4] concerns the target T3, Alpha-1D adrenergic receptor (Homo sapiens, UniProt P25100).
T3 sequence (P25100 whole entry): T2 sequence (whole entry)
Kind of data set: Inhibition of cloned adrenergic Alpha-1D receptor.

The target in data set [5] is T4, Alpha-2A adrenergic receptor (Homo sapiens) (UniProt P08913).
T4 sequence (whole entry): T1 sequence (P08913 whole entry)
Kind of data set: Displacement of [3H]MK912 from human cloned adrenergic alpha-2a receptor at 10 uM.

A short description of data set [6]: Inhibition of L-type calcium channel at 10 uM.

Data on one molecule can be found in ChEMBL document CHEMBL1140141 (J Nat Prod, 2008).

Usually inhibition stands for the drop in the measured response relative to a control, in per cent. What is called IC50 is the concentration at which inhibition is half-maximal. A higher IC50 goes with a need for much substance. A word on the Ki: it is the dissociation constant of the complex between target and ligand, obtained from inhibition or displacement.

Sequence of Histamine H3 receptor (Q9QYN8 whole entry): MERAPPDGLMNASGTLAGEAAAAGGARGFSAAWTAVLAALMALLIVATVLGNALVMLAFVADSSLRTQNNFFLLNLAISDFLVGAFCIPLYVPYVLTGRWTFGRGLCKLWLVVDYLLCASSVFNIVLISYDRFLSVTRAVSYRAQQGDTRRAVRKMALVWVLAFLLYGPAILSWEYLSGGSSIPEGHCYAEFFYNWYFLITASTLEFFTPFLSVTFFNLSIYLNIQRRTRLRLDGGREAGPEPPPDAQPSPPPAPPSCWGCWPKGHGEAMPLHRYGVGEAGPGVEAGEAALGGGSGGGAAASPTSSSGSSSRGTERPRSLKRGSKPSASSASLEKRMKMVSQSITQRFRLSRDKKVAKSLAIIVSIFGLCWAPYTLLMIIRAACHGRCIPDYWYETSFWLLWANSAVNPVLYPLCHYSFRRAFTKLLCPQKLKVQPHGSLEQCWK
Sequence of Histamine H2 receptor (P47747 whole entry, looked up): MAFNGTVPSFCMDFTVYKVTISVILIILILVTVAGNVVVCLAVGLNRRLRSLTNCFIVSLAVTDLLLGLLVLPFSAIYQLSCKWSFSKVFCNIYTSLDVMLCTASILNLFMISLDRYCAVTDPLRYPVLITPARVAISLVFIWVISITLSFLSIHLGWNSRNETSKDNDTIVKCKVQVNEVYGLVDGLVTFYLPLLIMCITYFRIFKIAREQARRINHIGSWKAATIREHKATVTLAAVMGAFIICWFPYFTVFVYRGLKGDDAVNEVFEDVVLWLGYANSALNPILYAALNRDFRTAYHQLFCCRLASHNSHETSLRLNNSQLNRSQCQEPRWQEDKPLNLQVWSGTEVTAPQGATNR
Sequence of Histamine H3 receptor (Rattus norvegicus) (Q9QYN8 whole entry): as the sequence (Q9QYN8 whole entry) above
Sequence of hERG (KCNH2) (Q12809 whole entry): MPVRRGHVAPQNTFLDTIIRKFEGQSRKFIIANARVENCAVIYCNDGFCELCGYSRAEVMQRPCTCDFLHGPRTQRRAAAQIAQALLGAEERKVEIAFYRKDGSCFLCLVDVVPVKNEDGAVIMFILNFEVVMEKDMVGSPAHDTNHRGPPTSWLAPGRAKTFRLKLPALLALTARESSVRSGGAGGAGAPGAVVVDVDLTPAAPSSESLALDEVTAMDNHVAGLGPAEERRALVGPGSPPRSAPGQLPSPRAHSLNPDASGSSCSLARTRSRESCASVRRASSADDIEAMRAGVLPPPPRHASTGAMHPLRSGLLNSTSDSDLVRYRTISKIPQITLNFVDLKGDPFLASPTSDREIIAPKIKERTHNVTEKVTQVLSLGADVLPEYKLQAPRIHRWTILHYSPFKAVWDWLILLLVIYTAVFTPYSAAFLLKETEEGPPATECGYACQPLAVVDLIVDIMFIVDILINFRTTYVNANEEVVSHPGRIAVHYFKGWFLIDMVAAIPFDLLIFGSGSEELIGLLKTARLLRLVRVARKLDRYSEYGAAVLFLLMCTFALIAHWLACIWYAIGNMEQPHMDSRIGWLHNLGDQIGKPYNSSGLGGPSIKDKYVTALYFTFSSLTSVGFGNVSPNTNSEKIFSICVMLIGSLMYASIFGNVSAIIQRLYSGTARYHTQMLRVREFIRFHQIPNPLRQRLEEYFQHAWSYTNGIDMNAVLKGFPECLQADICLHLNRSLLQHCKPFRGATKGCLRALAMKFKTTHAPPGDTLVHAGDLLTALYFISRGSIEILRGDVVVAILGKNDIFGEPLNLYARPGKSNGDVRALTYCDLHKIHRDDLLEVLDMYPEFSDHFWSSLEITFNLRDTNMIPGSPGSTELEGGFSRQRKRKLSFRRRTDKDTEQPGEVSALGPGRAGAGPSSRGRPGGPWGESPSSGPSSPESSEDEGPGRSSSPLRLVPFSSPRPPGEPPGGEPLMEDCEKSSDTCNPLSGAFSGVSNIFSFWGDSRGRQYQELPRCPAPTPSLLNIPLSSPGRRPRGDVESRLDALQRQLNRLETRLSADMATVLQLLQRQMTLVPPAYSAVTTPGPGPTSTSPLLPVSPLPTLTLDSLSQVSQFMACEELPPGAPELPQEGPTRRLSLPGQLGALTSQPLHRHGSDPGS

At hERG (KCNH2), `CN(C)CCCOc1ccc(CCNC(=O)c2cc(Br)c[nH]2)cc1Br` [DISPYRIN] had an inhibition at 10 µM of 50%. In addition, the IC50 in data set [1] was 185 nM; on Histamine H3 receptor, 2350 nM; on Histamine H2 receptor, 1250 nM; in data set [4], 560 nM. Besides, the inhibition constant (Ki) in [1] was found to be 69 nM; at Histamine H3 receptor, 1040 nM; at Histamine H2 receptor, 1020 nM; in data set [4], 275 nM. Also, the inhibition in [2] is 91%; in data set [3] it was 91%; in data set [5] it was 97%; in [6], 50%.
